According to article PMC5477026 (Chemical Science, 2016):

Biological target: T1, MexG (Pseudomonas aeruginosa, UniProt Q9HWH6)
T1 sequence (Q9HWH6 1-148): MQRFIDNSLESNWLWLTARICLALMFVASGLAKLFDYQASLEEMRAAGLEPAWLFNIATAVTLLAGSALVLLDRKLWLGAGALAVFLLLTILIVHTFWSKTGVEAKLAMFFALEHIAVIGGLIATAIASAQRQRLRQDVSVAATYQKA
Test: intrinsic Trp fluorescence quenching titration
Assay type: binding

Question: How did the Kd turn out when CCCCCCCc1[nH]c2ccccc2c(=O)c1O [PQS, 2-heptyl-3-hydroxy-4(1H)-quinolone] was run?
Answer: The Kd was 1000 nM.
